Reference: PMC6336494 (Nature communications, 2015)

Target: myeloperoxidase (MPO) (Homo sapiens, UniProt P05164)
Assay: guaiacol/H2O2 peroxidase activity assay with purified human MPO
Type: biochemical

Sequence of myeloperoxidase (MPO) (P05164 165-273): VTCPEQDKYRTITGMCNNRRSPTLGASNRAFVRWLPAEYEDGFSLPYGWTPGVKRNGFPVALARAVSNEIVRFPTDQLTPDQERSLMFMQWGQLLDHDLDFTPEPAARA
Sequence of myeloperoxidase (MPO) (P05164 279-745): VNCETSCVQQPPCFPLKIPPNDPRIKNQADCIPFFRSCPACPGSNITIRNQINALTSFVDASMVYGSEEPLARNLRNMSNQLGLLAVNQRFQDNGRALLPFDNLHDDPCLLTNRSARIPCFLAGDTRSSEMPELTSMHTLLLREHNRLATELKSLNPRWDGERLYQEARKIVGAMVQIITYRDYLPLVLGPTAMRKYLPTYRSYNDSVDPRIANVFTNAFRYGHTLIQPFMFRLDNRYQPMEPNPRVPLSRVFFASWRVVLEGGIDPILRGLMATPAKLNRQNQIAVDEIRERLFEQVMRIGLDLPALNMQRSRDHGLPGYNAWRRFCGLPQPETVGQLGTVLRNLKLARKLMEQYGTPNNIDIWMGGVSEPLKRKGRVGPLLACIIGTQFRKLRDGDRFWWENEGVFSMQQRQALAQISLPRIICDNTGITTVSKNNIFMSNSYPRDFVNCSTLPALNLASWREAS

O=C(N[C@H]1COC(=O)[C@@H](NC(=O)c2cccc(O)c2O)COC(=O)[C@@H](NC(=O)c2cccc(O)c2O)COC1=O)c1cccc(O)c1O [enterobactin]
IC50: ~1000 nM
